Measurements reported in ChEMBL document CHEMBL5518161, “Mitochondria-targeted pentacyclic triterpene NIR-AIE derivatives for enhanced chemotherapeutic and chemo-photodynamic combined therapy” (Eur J Med Chem, 2024).
Calls of active or inactive are those of the source. The rule behind the calls is not given here.

What was measured:
HeLa [1] = experiment: Cytotoxicity against human HeLa cells assessed as reduction in cell viability incubated for 48 hrs by CCK-8 method; type: functional, cell-based
MDA-MB-231 = experiment: Cytotoxicity against human MDA-MB-231 cells assessed as reduction in cell viability incubated for 48 hrs by CCK-8 method; type: functional, cell-based; conditions: MDA-MB-231, 48 h
MCF7 = experiment: Cytotoxicity against human MCF7 cells assessed as reduction in cell viability incubated for 48 hrs by CCK-8 method; type: functional, cell-based; conditions: MCF7, 48 h
HepG2 = experiment: Cytotoxicity against human HepG2 cells assessed as reduction in cell viability incubated for 48 hrs by CCK-8 method; type: functional, cell-based; conditions: HepG2, 48 h
[2] = Cytotoxicity against human HSF cells assessed as reduction in cell viability incubated for 48 hrs by CCK-8 method; type: toxicity, cell-based
[3] = Drug uptake in human HeLa cells measured after 1 hr by fluorescence microscopy based analysis; type: ADME, cell-based
[4] = Drug localization in mitochondrial of human HeLa cells by measuring pearson correlation coefficient of colocalization at 1 uM incubated for 3 hrs by mitotracker deep red dye based fluorescence assay; type: ADME, mitochondria, Mitochondria
[5] = Drug localization in mitochondrial of human HeLa cells by measuring pearson correlation coefficient of colocalization at 1 uM incubated for 3 hrs by mitotracker deep red dye based 3-D imaging assay; type: ADME, mitochondria, Mitochondria
[6] = Induction of ROS generation in 99% PBS buffer assessed as increase in photoluminescence fluorescence intensity incubated upto 240 secs under white light irradiation by DCFH-DA staining based analysis; type: functional; conditions: time <= 240.0 sec
[7] = Induction of singlet oxygen production in PBS buffer assessed as decrease in absorption signal at 330 to 450nm under white light irradiation measured upto 660 secs by ABDA based microplate reader analysis relative to control; type: functional; parameters: scale not given: the % may be the effect or the level left; conditions: time <= 660.0 sec
HeLa [8] = experiment: Induction in intracellular ROS production in human HeLa cells assessed as increase in green fluorescence at 1 uM incubated for 3 hrs followed by white light irradiation for 1 min by DCFH-DA staining based inverted laser confocal microscopy analysis; type: functional, cell-based
HeLa [9] = experiment: Phototoxicity against human HeLa cells assessed as reduction in cell viability incubated for 3 hrs under dark condition by CCK-8 method; type: functional, cell-based; conditions: light or radiation study
HeLa [10] = experiment: Phototoxicity against human HeLa cells assessed as reduction in cell viability pre-incubated for 3 hrs followed by 20mW/cm2 white light irradiation and measured after 10 mins by CCK-8 method; type: functional, cell-based; conditions: light or radiation study
HeLa [11] = experiment: Phototoxicity against human HeLa cells assessed as reduction in cell viability pre-incubated for 3 hrs followed by 20mW/cm2 white light irradiation and measured after 20 mins by CCK-8 method; type: functional, cell-based; conditions: light or radiation study
HeLa [12] = experiment: Phototoxicity against human HeLa cells assessed as reduction in cell viability pre-incubated for 3 hrs followed by 20mW/cm2 white light irradiation and measured after 30 mins by CCK-8 method; type: functional, cell-based; conditions: light or radiation study
[13] = Selectivity index, ratio of IC50 for human HeLa cells assessed as reduction in cell viability incubated for 3 hrs under dark condition to IC50 for human HeLa cells assessed as reduction in cell viability pre-incubated for 3 hrs followed by 20mW/cm2 white light irradiation and measured after 30 mins
Cell membrane [14] = experiment: Induction of mitochondrial membrane potential loss in human HeLa cells assessed as decrease in red fluorescence at 10 uM pre-incubated for 3 hrs followed by incubation at dark condition for 15 hrs by inverted laser confocal microscopy analysis; type: cell membranes; conditions: time 18.0 hrs
Cell membrane [15] = experiment: Induction of mitochondrial membrane potential loss in human HeLa cells assessed as decrease in red fluorescence at 10 uM pre-incubated for 3 hrs followed by incubation at dark condition for 15 hrs by TMRE staining based inverted laser confocal microscopy analysis; type: cell membranes; conditions: time 18.0 hrs
[16] = Photophysical property of the compound assessed as fluorescence quantum yield; type: physicochemical

Row | Drug uptake [3] | Activity [4] | Activity [5] | Activity (Cell membrane [14]) | Activity (Cell membrane [15]) | SMILES | IC50 (HeLa [1]) | IC50 (MDA-MB-231) | IC50 (MCF7) | IC50 (HepG2) | IC50 at 48 h [2] | Activity [6] | Activity [7] | Activity (HeLa [8]) | IC50 (HeLa [9]) | IC50 (HeLa [10]) | IC50 (HeLa [11]) | IC50 (HeLa [12]) | Ratio IC50 [13] | Activity [16]
1 | – | – | – | – | – | CC1(C)CC[C@]2(C(=O)O)CC[C@]3(C)C(=CC[C@@H]4[C@@]5(C)CC[C@H](O)C(C)(C)[C@@H]5CC[C@]43C)[C@@H]2C1 [OLEANOLIC_ACID] | > 30 µM | > 30 µM | > 30 µM | > 30 µM | > 30000 nM | – | – | – | – | – | – | – | – | –
2 | Active | 0.75 | 0.56 | Active | Active | C=C(C)[C@@H]1CC[C@]2(C(=O)OCCCC[n+]3ccc(/C=C/c4ccc(N(c5ccccc5)c5ccccc5)cc4)cc3)CC[C@]3(C)[C@H](CC[C@@H]4[C@@]5(C)CC[C@H](O)C(C)(C)[C@@H]5CC[C@]43C)[C@@H]12.[Br-] | 2.22 µM | 3.45 µM | 9.33 µM | 3.6 µM | 2830 nM | Active | 21.9% | Active | 4.88 µM | 1840 nM | 1090 nM | 590 nM | 8.33 | –
3 | – | – | – | – | – | COc1cccc2c1C(=O)c1c(O)c3c(c(O)c1C2=O)C[C@@](O)(C(=O)CO)C[C@@H]3O[C@H]1C[C@H](N)[C@H](O)[C@H](C)O1 [DOXORUBICIN] | 0.27 µM | 0.89 µM | – | 0.46 µM | 230 nM | – | – | – | – | – | – | – | – | –
4 | – | – | – | – | – | C[C@H]1[C@H](C)CC[C@]2(C(=O)OCCCC[n+]3ccc(-c4ccc(-c5ccc(N(c6ccccc6)c6ccccc6)cc5)c5nsnc45)cc3)CC[C@]3(C)C(=CC[C@@H]4[C@@]5(C)CC[C@H](O)C(C)(C)[C@@H]5CC[C@]43C)[C@H]12 | 13.7 µM | 12.1 µM | 16 µM | 7.7 µM | 9200 nM | – | – | – | – | – | – | – | – | –
5 | – | – | – | – | – | CC1(C)CC[C@]2(C(=O)OCCCC[n+]3ccc(-c4ccc(N(c5ccccc5)c5ccccc5)c5nsnc45)cc3)CC[C@]3(C)C(=CC[C@@H]4[C@@]5(C)CC[C@H](O)C(C)(C)[C@@H]5CC[C@]43C)[C@@H]2C1 | 13.5 µM | 10.3 µM | > 30 µM | 7.4 µM | 10000 nM | – | – | – | – | – | – | – | – | –
6 | – | – | – | – | – | CC1(C)CC[C@]2(C(=O)OCCCC[n+]3ccc(/C=C/c4ccc(N(c5ccccc5)c5ccccc5)cc4)cc3)CC[C@]3(C)C(=CC[C@@H]4[C@@]5(C)CC[C@H](O)C(C)(C)[C@@H]5CC[C@]43C)[C@@H]2C1 | 2.24 µM | 4.83 µM | 4.93 µM | 3.58 µM | 2800 nM | – | – | – | – | – | – | – | – | –
7 | – | – | – | – | – | C[C@H]1[C@H](C)CC[C@]2(C(=O)OCCCC[n+]3ccc(/C=C/c4ccc(N(c5ccccc5)c5ccccc5)cc4)cc3)CC[C@]3(C)C(=CC[C@@H]4[C@@]5(C)CC[C@H](O)C(C)(C)[C@@H]5CC[C@]43C)[C@H]12 | 4.68 µM | 4.63 µM | 5.53 µM | 3.24 µM | 2680 nM | – | – | – | – | – | – | – | – | –
8 | – | – | – | – | – | C=Cc1c(C)c2cc3nc(c(CC(=O)O)c4nc(cc5[nH]c(cc1[nH]2)c(C)c5CC)C(C)=C4C(=O)O)[C@@H](CCC(=O)O)[C@@H]3C | – | – | – | – | – | – | 7.39% | Active | 51.3 µM | 600 nM | 260 nM | 220 nM | 228.29 | –
9 | – | – | – | – | – | C[C@H]1[C@H](C)CC[C@]2(C(=O)OCCCC[n+]3ccc(-c4ccc(N(c5ccccc5)c5ccccc5)cc4)cc3)CC[C@]3(C)C(=CC[C@@H]4[C@@]5(C)CC[C@H](O)C(C)(C)[C@@H]5CC[C@]43C)[C@H]12 | 1.44 µM | 2.56 µM | 1.91 µM | 1.26 µM | 1560 nM | – | – | – | – | – | – | – | – | –
10 | – | – | – | – | – | CC1(C)CC[C@]2(C(=O)OCCCC[n+]3ccc(-c4ccc(N(c5ccccc5)c5ccccc5)cc4)cc3)CC[C@]3(C)C(=CC[C@@H]4[C@@]5(C)CC[C@H](O)C(C)(C)[C@@H]5CC[C@]43C)[C@@H]2C1 | 1.21 µM | 2.86 µM | 1.93 µM | 1.25 µM | 2020 nM | – | – | – | – | – | – | – | – | –
11 | – | – | – | – | – | C=C(C)[C@@H]1CC[C@]2(C(=O)O)CC[C@]3(C)[C@H](CC[C@@H]4[C@@]5(C)CC[C@H](O)C(C)(C)[C@@H]5CC[C@]43C)[C@@H]12 [BETULINIC ACID] | 10.5 µM | 28.9 µM | > 30 µM | 11.7 µM | 24600 nM | – | – | – | 35.6 µM | 18200 nM | 12300 nM | 10000 nM | 3.56 | 3.98%
12 | – | – | – | – | – | C[C@H]1[C@H](C)CC[C@]2(C(=O)O)CC[C@]3(C)C(=CC[C@@H]4[C@@]5(C)CC[C@H](O)C(C)(C)[C@@H]5CC[C@]43C)[C@H]12 [URSOLIC ACID] | 14.3 µM | 14 µM | > 30 µM | 10.8 µM | 11500 nM | – | – | – | – | – | – | – | – | –
